Here are results for 28 molecules from ChEMBL document CHEMBL5724696, “Autophagy assay results for EUbOPEN Chemogenomics Library” (2024).

Where “and” joins values, the source holds several entries; their conditions need not be identical. Equal values may be shown once.

The assay has as its system TERT-RPE1. Put plainly: Here: values are normalized to the negative (DMSO; defined as 0% autophagy induction) and positive (250nM Torin1; mTOR inhibitor; defined as maximal inducer of autophagy = 100%) control compounds and represented as % of autophagy induction. […] The impact of autophagy induction on cells is complex and depends on the affected target. As such, the magnitude of a phenotype may not be equally mirrored in the %-value of autophagy induction and vice versa. The dynamics of the induction may indicate the mode of activation: e.g. activation via phosphorylation or a signaling cascade may occur fast, while activation via transcription factors may take considerably longer. […] Of note, treatment concentrations may be sub-optimal for specific compounds, leading to false negative annotations. Type of assay: functional, Homo sapiens. Particulars: Compound Concentration 1 uM, Culturing Media DMEM/F12 (1:1), 1 % Penicillin/Streptomycin, 10% Fetal bovin serum Add-On: No, Screening Media Control DMEM/F12 (1:1), Screening Media Samples DMEM/F12 (1:1).

As to `CC(C=CC1=C(C)CCCC1(C)C)=CC=CC(C)=CC(=O)O`, the autophagy induction is -29.8215% (Timepoint 12 hours), -16.487% (Timepoint 24 hours), 10.9979% (Timepoint 36 hours) and 39.1731% (Timepoint 60 hours).

With `COc1ccc(-c2ccc3cc(C(=O)O)ccc3c2)cc1C12CC3CC(CC(C3)C1)C2`, the autophagy induction (Timepoint 12 hours) is reported as -16.1508%, the autophagy induction (Timepoint 24 hours) was -22.2133%, the autophagy induction (Timepoint 36 hours) is -14.1287% and the autophagy induction (Timepoint 60 hours) came out at 30.465%.

As to `Cc1cccc(CN2CCN(C(c3ccccc3)c3ccc(Cl)cc3)CC2)c1.Cl.Cl` (configuration not stated), the autophagy induction runs as follows: (Timepoint 12 hours) 89.2215%; (Timepoint 24 hours) -0.434%; (Timepoint 36 hours) 13.2807%; (Timepoint 60 hours) -24.9822%.

As for `CCCc1c(OCCCOc2ccc(OCC(=O)O)cc2)ccc(C(C)=O)c1O`, the autophagy induction reads like this: (Timepoint 12 hours) -6.598%; (Timepoint 24 hours) -4.053%; (Timepoint 36 hours) -2.5514%; (Timepoint 60 hours) -8.413%.

As for `CCOC(=O)Nc1ccc2c(c1)N(C(=O)CN(CC)CC)c1ccccc1CC2`, the autophagy induction by setting is: (Timepoint 12 hours) -0.6682%; (Timepoint 24 hours) 2.4649%; (Timepoint 36 hours) 6.3561%; (Timepoint 60 hours) 1.708%.

As for `CN(CCOc1ccc(C[C@H](Nc2ccccc2C(=O)c2ccccc2)C(=O)O)cc1)c1ccccn1.O`, the autophagy induction is, setting by setting: (Timepoint 12 hours) -1.212%; (Timepoint 24 hours) -2.25%; (Timepoint 36 hours) 0.5142%; (Timepoint 60 hours) -9.85%.

As to `OC(c1ccc(-c2ccc(CN3CCN(Cc4ccncc4)CC3)cc2)c(F)c1)(C(F)(F)F)C(F)(F)F`, the autophagy induction is listed as -2.122% (Timepoint 12 hours), -7.771% (Timepoint 24 hours), -2.839% (Timepoint 36 hours) and 2.172% (Timepoint 60 hours).

As to `COc1cc(O)c(C(CC(=O)N2C[C@H](C)C[C@H](C)C2)c2ccc3c(c2)OCO3)c(OC)c1` (some centres not stated), the autophagy induction runs as follows: (Timepoint 12 hours, 12 h, 1 µM) -12.9989% and -4.38%; (Timepoint 24 hours, 24 h, 1 µM) -0.5632% and -3.782%; (Timepoint 36 hours, 36 h, 1 µM) 12.4792% and 2.693%; (Timepoint 60 hours, 60 h, 1 µM) -12.6071% and -5.875%.

Regarding `O=C(Nc1ccc(C(O)(C(F)(F)F)C(F)(F)F)cc1)c1ccc(C(F)(F)F)cc1`, the autophagy induction came to 1.9218% (Timepoint 12 hours), 1.011% (Timepoint 24 hours), 4.384% (Timepoint 36 hours) and 2.099% (Timepoint 60 hours).

Turning to `CC(=O)Nc1nc(C)c(S(=O)(=O)Nc2ccc(C(O)(C(F)(F)F)C(F)(F)F)cc2)s1`, the autophagy induction is listed as 4.3226% (Timepoint 12 hours), 10.3847% (Timepoint 24 hours), 21.8693% (Timepoint 36 hours) and -92.7489% (Timepoint 60 hours).

In the case of `CC(C)c1onc(-c2c(Cl)cccc2Cl)c1COc1ccc(/C=C/c2cccc(C(=O)O)c2)c(Cl)c1`, the autophagy induction is, setting by setting: (Timepoint 12 hours) -17.7139%; (Timepoint 24 hours) -8.477%; (Timepoint 36 hours) 8.951%; (Timepoint 60 hours) -22.8602%.

For `O=S(=O)(Nc1ccc(C(O)(C(F)(F)F)C(F)(F)F)cc1)c1cccs1`, the autophagy induction (Timepoint 12 hours) is recorded as 37.5142%, the autophagy induction (Timepoint 24 hours) is listed as -2.586%, the autophagy induction (Timepoint 36 hours) is 11.7189% and the autophagy induction (Timepoint 60 hours) is reported as -15.4416%.

Take `COc1cccc(Cn2cc(C(=O)Nc3ccc(C)c(S(=O)(=O)N4CCOCC4)c3)c(-c3ccc(C)cc3)n2)c1`: the autophagy induction is -3.785% (Timepoint 12 hours), -6.106% (Timepoint 24 hours), -1.342% (Timepoint 36 hours) and -4.917% (Timepoint 60 hours).

Take `Cc1cc(SCc2sc(-c3ccc(C(F)(F)F)c(F)c3)nc2C)ccc1OCC(=O)O`: the autophagy induction is, setting by setting: (Timepoint 12 hours) -0.9501%; (Timepoint 24 hours) -2.27%; (Timepoint 36 hours) 3.329%; (Timepoint 60 hours) -6.099%.

As to `Cl.O=C(O)Cc1cccc(OCCCN(Cc2cccc(C(F)(F)F)c2Cl)CC(c2ccccc2)c2ccccc2)c1`, the autophagy induction by setting is: (Timepoint 12 hours) -4.945%; (Timepoint 24 hours) -7.042%; (Timepoint 36 hours) -10.7668%; (Timepoint 60 hours) -6.3424%.

As for `CC(C)C(=O)N1CCC(c2cn(C)c3ncc(NC(=O)c4cccc(C#N)c4)c(C(F)(F)F)c23)CC1`, the autophagy induction by setting is: (Timepoint 12 hours) -17.3669%; (Timepoint 24 hours) -7.8656%; (Timepoint 36 hours) 13.4062%; (Timepoint 60 hours) -15.2604%.

Consider `CC(C)c1ccc(CC(=O)N2CCC[C@@H](c3cccc(OC(C)(C)C(=O)O)c3)C2)cc1`, for which the autophagy induction (Timepoint 12 hours) is 2.269%, the autophagy induction (Timepoint 24 hours) was -2.988%, the autophagy induction (Timepoint 36 hours) is 2.286% and the autophagy induction (Timepoint 60 hours) is listed as -0.7623%.

As to `COC(=O)C(Cc1ccc(OCCn2c(=O)sc3cc(C(=O)c4ccccc4)ccc32)cc1)C(=O)OC`, the autophagy induction by setting is: (Timepoint 12 hours) -14.8184%; (Timepoint 24 hours) -7.449%; (Timepoint 36 hours) 12.2337%; (Timepoint 60 hours) -20.3416%.

Turning to `Clc1ccc(-c2nc3sccn3c2/C=N/OCc2ccc(Cl)c(Cl)c2)cc1`, the autophagy induction was -153.599% (Timepoint 12 hours), -9.053% (Timepoint 24 hours), 9.503% (Timepoint 36 hours) and -19.9955% (Timepoint 60 hours).

Regarding `CCOP(=O)(OCC)C(=Cc1cc(C(C)(C)C)c(O)c(C(C)(C)C)c1)P(=O)(OCC)OCC`, the autophagy induction runs as follows: (Timepoint 12 hours) -14.535%; (Timepoint 24 hours) -0.01812%; (Timepoint 36 hours) 17.6383%; (Timepoint 60 hours) -21.9097%.

As to `CCOC(=O)C1Cc2ccccc2CN1C(=O)c1ccc(SC)s1` (configuration not stated), the autophagy induction by setting is: (Timepoint 12 hours) 141.578%; (Timepoint 24 hours) -7.836%; (Timepoint 36 hours) 8.933%; (Timepoint 60 hours) -16.4137%.

`CC1(C)C(=O)C(C)(C)c2cc(C(=O)Nc3ccc(C(=O)O)cc3)ccc21`: the autophagy induction is reported as -15.7037% (Timepoint 12 hours), -5.578% (Timepoint 24 hours), 15.5375% (Timepoint 36 hours) and -28.4557% (Timepoint 60 hours).

Consider `C[C@H](CCOc1cccc(CC(=O)O)c1)N(Cc1cccc(C(F)(F)F)c1Cl)CC(c1ccccc1)c1ccccc1.Cl`, for which the autophagy induction (Timepoint 12 hours) is -13.5866%, the autophagy induction (Timepoint 24 hours) worked out at 1.703%, the autophagy induction (Timepoint 36 hours) is 15.8521% and the autophagy induction (Timepoint 60 hours) is given as -16.0779%.

Regarding `CCO[C@H](COc1ccc(C(F)(F)F)cc1)CSc1ccc(OCC(=O)[O-])c(C)c1.[Na+]`, the autophagy induction is given as 0.706% (Timepoint 12 hours), -0.6859% (Timepoint 24 hours), 2.912% (Timepoint 36 hours) and 3.397% (Timepoint 60 hours).

As for `CN1CCN(c2ccc(/C=C(\C#N)c3ccccc3Br)cc2)CC1.Cl.Cl`, the autophagy induction was -7.74% (Timepoint 12 hours), -11.503% (Timepoint 24 hours), -8.5159% (Timepoint 36 hours) and 1.827% (Timepoint 60 hours).

For the molecule `COC(=O)c1sccc1S(=O)(=O)Nc1ccc(Nc2ccccc2)cc1OC`, the autophagy induction (Timepoint 12 hours) is listed as -12.2106%, the autophagy induction (Timepoint 24 hours) is listed as -1.2%, the autophagy induction (Timepoint 36 hours) is given as 15.0919% and the autophagy induction (Timepoint 60 hours) was -15.7117%.

On to `O=C(NCCS(=O)(=O)c1ccc(C(F)(F)F)cn1)c1ccc(Cl)cc1`, for which the autophagy induction (Timepoint 12 hours) is listed as -3.2973%, the autophagy induction (Timepoint 24 hours) was -5.225%, the autophagy induction (Timepoint 36 hours) is given as 0.4695% and the autophagy induction (Timepoint 60 hours) is on record as 10.0166%.

In the case of `CC1(C)CCC(C)(C)c2cc(C(=O)Nc3ccc(C(=O)O)cc3)ccc21`, the autophagy induction reads like this: (Timepoint 12 hours) -16.8061%; (Timepoint 24 hours) -23.3221%; (Timepoint 36 hours) -14.7294%; (Timepoint 60 hours) 28.5347%.
